Laboratory results taken from patent US10266526B2, “Substituted 1,2,3-triazoles as SMYD inhibitors for treating cancer” (EPIZYME, INC., priority 2014, dated 2019).
Read-outs that look alike come from different tables or passages of the source.

Molecular target: SMYD3 (Homo sapiens (Human), UniProt Q9H7B4)
Experiment: SMYD3 biochemical assay (SMYD3 enzyme assay on MEKK2 protein substrate, 3H-SAM scintillation proximity assay)
How it was run: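 Native full-length human SMYD3, expressed in E. coli, was preincubated with compound for 30 min at room temperature in 25 mM Tris-Cl pH 8.0, 1 mM TCEP, 0.005% BSG and 0.005% Tween 20. ³H-SAM plus GST-MEKK2 then started the reaction. It was stopped with unlabeled SAM (100 uM final), and methylated MEKK2 was read by SPA.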

[1] = read-out: SMYD3 Biochem IC50 (μM)*
[2] = Table 1A, average of n = 1 to n = 50, read-out: SMYD3 Biochem IC50

Sequence of SMYD3 (Q9H7B4 whole entry): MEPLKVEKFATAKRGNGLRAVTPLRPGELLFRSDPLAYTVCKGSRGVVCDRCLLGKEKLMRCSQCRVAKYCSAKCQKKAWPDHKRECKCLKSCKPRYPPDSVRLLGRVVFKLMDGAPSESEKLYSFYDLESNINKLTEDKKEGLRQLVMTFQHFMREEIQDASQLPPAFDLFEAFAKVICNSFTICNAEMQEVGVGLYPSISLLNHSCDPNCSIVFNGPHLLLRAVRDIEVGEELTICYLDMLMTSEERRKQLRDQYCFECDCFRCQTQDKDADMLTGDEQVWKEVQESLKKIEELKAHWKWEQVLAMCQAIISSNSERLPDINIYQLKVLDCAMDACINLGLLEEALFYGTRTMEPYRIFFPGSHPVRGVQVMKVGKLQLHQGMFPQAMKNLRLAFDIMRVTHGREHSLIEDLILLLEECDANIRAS

IC50 (read-out: SMYD3 Biochem IC50) [µM]	SMILES	also measured
> 100	CC(NC(=O)c1ccnc(O)c1)C1CCN(C(=O)[C@H](C)N)CC1 (stereo partly drawn) [compound 250, N-(1-(1-(L-alanyl)piperidin-4-yl)ethyl)-2-hydroxyisonicotinamide]	–
1.59	N[C@H]1CC[C@H](NC(=O)c2cc3c(cc2Cl)NC(=O)C3)CC1 [compound 492, N-((1r,4r)-4-aminocyclohexyl)-6-chloro-2-oxoindoline-5-carboxamide]	–
–	CCc1ncc(C(=O)Nc2ccc(CN)cc2)s1 [compound 61, N-(4-(aminomethyl)phenyl)-2-ethylthiazole-5-carboxamide]	IC50 [1]: 114 µM
> 100	Cc1nn(C(C)C(=O)NC(C)C2CCN(C(=O)[C@H](C)N)CC2)c(C)c1Br (stereo partly drawn) [compound 216, N-(1-(1-(L-alanyl)piperidin-4-yl)ethyl)-2-(4-bromo-3,5-dimethyl-1H-pyrazol-1-yl)propanamide]	–
–	N[C@H]1CC[C@H](NC(=O)c2ccc3c(c2)NC(=O)C3)CC1 [compound 71, N-((1r,4r)-4-aminocyclohexyl)-2-oxoindoline-6-carboxamide]	IC50 [1]: 89.3 µM
72.9	CC(NC(=O)c1nc2ccccc2[nH]1)C1CCN(C(=O)[C@H](C)N)CC1 (stereo partly drawn) [compound 243, N-(1-(1-(L-alanyl)piperidin-4-yl)ethyl)-1H-benzo[d]imidazole-2-carboxamide]	–
–	C[C@@H]1C[C@@H](NC(=O)c2ccccc2)CCN1C(=O)C1CCC(N)CC1 (mixture of isomers) [compound 557, (±)-trans-N-(1-(4-aminocyclohexane-1-carbonyl)-2-methylpiperidin-4-yl)benzamide]	IC50 [2]: > 10 µM
–	CCC(=O)c1c[nH]c(C(=O)Nc2ccc(CN)cc2)c1 [compound 52, N-(4-(aminomethyl)phenyl)-4-propionyl-1H-pyrrole-2-carboxamide]	IC50 [1]: 108 µM
–	CC(NC(=O)c1ncccn1)C1CCN(C(=O)[C@H](C)N)CC1 (stereo partly drawn) [compound 144, N-(1-(1-(L-alanyl)piperidin-4-yl)ethyl)pyrimidine-2-carboxamide]	IC50 [1]: > 100 µM
> 100	Cc1ncc(C(=O)N[C@H]2CC[C@H](N)CC2)cn1 [compound 320, N-((1r,4r)-4-aminocyclohexyl)-2-methylpyrimidine-5-carboxamide]	–
> 100	N[C@H]1CC[C@H](NC(=O)C2=NNC(=O)CC2)CC1 [compound 424, N-((1r,4r)-4-aminocyclohexyl)-6-oxo-1,4,5,6-tetrahydropyridazine-3-carboxamide]	–
–	N[C@H]1CC[C@H](NC(=O)c2ccc3c(c2)CC(=O)N3)CC1 [compound 40, N-((1r,4r)-4-aminocyclohexyl)-2-oxoindoline-5-carboxamide]	IC50 [1]: 2.84 µM
–	CCc1ccc(C(=O)Nc2ccc(CN)cc2)s1 [compound 56, N-(4-(aminomethyl)phenyl)-5-ethylthiophene-2-carboxamide]	IC50 [1]: 138 µM
–	Cc1cc(C(=O)N[C@H]2CC[C@H](N)CC2)n(-c2ccccc2)n1 [compound 28, N-((1r,4r)-4-aminocyclohexyl)-3-methyl-1-phenyl-1H-pyrazole-5-carboxamide]	IC50 [1]: 111 µM
> 50	CC(NC(=O)c1ncccc1O)C1CCN(C(=O)[C@H](C)N)CC1 (stereo partly drawn) [compound 511, N-(1-(1-(L-alanyl)piperidin-4-yl)ethyl)-3-hydroxypicolinamide]	–
68.5	Cc1cccc2cc(C(=O)N[C@H]3CC[C@H](N)CC3)[nH]c12 [compound 343, N-((1r,4r)-4-aminocyclohexyl)-7-methyl-1H-indole-2-carboxamide]	–
–	Cc1cc(C(=O)NC(c2ccccc2)C2CCNCC2)n(Cc2ccccc2)n1 (stereo not drawn) [compound 32, 1-benzyl-3-methyl-N-(phenyl(piperidin-4-yl)methyl)-1H-pyrazole-5-carboxamide]	IC50 [1]: 91.3 µM
–	NCCC(=O)N[C@H]1CC[C@H](NC(=O)c2cc3cc(Br)ccc3nc2O)CC1 [compound 566, N-((1r,4r)-4-(3-aminopropanamido)cyclohexyl)-6-bromo-2-hydroxyquinoline-3-carboxamide]	IC50 [2]: > 10 µM
–	C[C@H]1C[C@@H](NC(=O)c2ccccc2)CCN1C(=O)C1CCC(N)CC1 (mixture of isomers) [compound 567, (±)-cis-N-(1-(4-aminocyclohexane-1-carbonyl)-2-methylpiperidin-4-yl)benzamide]	IC50 [2]: > 10 µM
–	CC(=O)Nc1ccc(S(=O)(=O)N2CCC(NC(=O)c3cn(C)cn3)CC2)cc1 [compound 9, N-(1-((4-acetamidophenyl)sulfonyl)piperidin-4-yl)-1-methyl-1H-imidazole-4-carboxamide]	IC50 [1]: 60.5 µM
35.7	N[C@H]1CC[C@H](NC(=O)c2cc3cn[nH]c3cn2)CC1 [compound 497, N-((1r,4r)-4-aminocyclohexyl)-1H-pyrazolo[3,4-c]pyridine-5-carboxamide]	–
> 100	N[C@H]1CC[C@H](NC(=O)c2c[nH]c3ccccc23)CC1 [compound 360, N-((1r,4r)-4-aminocyclohexyl)-1H-indole-3-carboxamide]	–
85.7	N[C@H]1CC[C@H](NC(=O)c2noc(C3CC3)n2)CC1 [compound 484, N-((1r,4r)-4-aminocyclohexyl)-5-cyclopropyl-1,2,4-oxadiazole-3-carboxamide]	–

IC50 (read-out: SMYD3 Biochem IC50) [µM]	SMILES	also measured
37.7	Cc1cccc2cc(C(=O)N[C@H]3CC[C@H](NC(=O)CCN)CC3)[nH]c12 [compound 342, N-((1r,4r)-4-(3-aminopropanamido)cyclohexyl)-7-methyl-1H-indole-2-carboxamide]	–
> 100	CC(NC(=O)C1C[C@@H]2C=C[C@H]1C2)C1CCN(C(=O)[C@H](C)N)CC1 (stereo partly drawn) [compound 338, (1r,4r)-N-(1-(1-(L-alanyl)piperidin-4-yl)ethyl)bicyclo[2.2.1]hept-5-ene-2-carboxamide]	–
> 100	N[C@H]1CC[C@H](NC(=O)c2ccnc(O)c2)CC1 [compound 292, N-((1r,4r)-4-aminocyclohexyl)-2-hydroxyisonicotinamide]	–
–	C[C@H](N)C(=O)N1CCC(O)(CNC(=O)c2ccc3c(c2)CC(=O)N3)CC1 [compound 112, N-((1-(L-alanyl)-4-hydroxypiperidin-4-yl)methyl)-2-oxoindoline-5-carboxamide]	IC50 [1]: 3.04 µM
> 100	CC(NC(=O)Cn1ccnc1)C1CCN(C(=O)[C@H](C)N)CC1 (stereo partly drawn) [compound 316, N-(1-(1-(L-alanyl)piperidin-4-yl)ethyl)-2-(1H-imidazol-1-yl)acetamide]	–
91.5	N[C@H]1CC[C@H](NC(=O)c2cc3cc(Cl)ccc3[nH]2)CC1 [compound 231, N-((1r,4r)-4-aminocyclohexyl)-5-chloro-1H-indole-2-carboxamide]	–
32.7	CC(NC(=O)c1noc(C2CC2)n1)C1CCN(C(=O)[C@H](C)N)CC1 (stereo partly drawn) [compound 464, N-(1-(1-(L-alanyl)piperidin-4-yl)ethyl)-5-cyclopropyl-1,2,4-oxadiazole-3-carboxamide]	–
> 100	NS(=O)(=O)c1ccc(C(=O)N[C@H]2CC[C@H](N)CC2)cc1 [compound 190, N-((1r,4r)-4-aminocyclohexyl)-4-sulfamoylbenzamide]	–
> 100	Cc1cnc(C(=O)N[C@H]2CC[C@H](NC(=O)CCN)CC2)cn1 [compound 215, N-((1r,4r)-4-(3-aminopropanamido)cyclohexyl)-5-methylpyrazine-2-carboxamide]	–
–	NCCC(=O)N[C@H]1CC[C@H](NC(=O)c2ccc3cnccc3c2)CC1 [compound 165, N-((1r,4r)-4-(3-aminopropanamido)cyclohexyl)isoquinoline-6-carboxamide]	IC50 [1]: 15.5 µM
73.4	Cc1ccncc1C(=O)NC(C)C1CCN(C(=O)[C@H](C)N)CC1 (stereo partly drawn) [compound 255, N-(1-(1-(L-alanyl)piperidin-4-yl)ethyl)-4-methylnicotinamide]	–
–	CCOC(=O)C1(CNC(=O)c2ccc3c(c2)CC(=O)N3)CCN(C(=O)[C@H](C)N)CC1 [compound 132, ethyl 1-(L-alanyl)-4-((2-oxoindoline-5-carboxamido)methyl)piperidine-4-carboxylate]	IC50 [1]: 0.94 µM
12.5	N[C@H]1CC[C@H](NC(=O)[C@H]2CCc3ccccc3N2)CC1 [compound 436, (R)-N-((1r,4r)-4-aminocyclohexyl)-1,2,3,4-tetrahydroquinoline-2-carboxamide]	–
> 100	Nc1cc(C(=O)N[C@H]2CC[C@H](N)CC2)ccn1 [compound 322, 2-amino-N-((1r,4r)-4-aminocyclohexyl)isonicotinamide]	–
> 100	Cn1c(C(=O)N[C@H]2CC[C@H](NC(=O)CCN)CC2)cc2ccccc21 [compound 245, N-((1r,4r)-4-(3-aminopropanamido)cyclohexyl)-1-methyl-1H-indole-2-carboxamide]	–
–	CCC1(C(=O)N[C@H]2CC[C@H](N)CC2)CCCN1 (stereo partly drawn) [compound 111, N-((1r,4r)-4-aminocyclohexyl)-2-ethylpyrrolidine-2-carboxamide]	IC50 [1]: 150 µM
37.2	NCCC(=O)N[C@H]1CC[C@H](NC(=O)c2ccc3cc[nH]c3c2)CC1 [compound 272, N-((1r,4r)-4-(3-aminopropanamido)cyclohexyl)-1H-indole-6-carboxamide]	–
> 100	COc1cnc(C(=O)N[C@H]2CC[C@H](N)CC2)cn1 [compound 384, N-((1r,4r)-4-aminocyclohexyl)-5-methoxypyrazine-2-carboxamide]	–
> 100	Cn1ccc(C(=O)N[C@H]2CC[C@H](NC(=O)CCN)CC2)n1 [compound 349, N-((1r,4r)-4-(3-aminopropanamido)cyclohexyl)-1-methyl-1H-pyrazole-3-carboxamide]	–
–	Cc1c[nH]c(C(=O)N[C@H]2CC[C@H](N)CC2)n1 [compound 562, N-((1r,4r)-4-aminocyclohexyl)-4-methyl-1H-imidazole-2-carboxamide]	IC50 [2]: > 10 µM
> 100	N[C@H]1CC[C@H](NC(=O)c2ccc(Cl)cc2C(F)(F)F)CC1 [compound 358, N-((1r,4r)-4-aminocyclohexyl)-4-chloro-2-(trifluoromethyl)benzamide]	–
> 100	CC(NC(=O)c1cnccn1)C1CCN(C(=O)[C@H](C)N)CC1 (stereo partly drawn) [compound 205, N-(1-(1-(L-alanyl)piperidin-4-yl)ethyl)pyrazine-2-carboxamide]	–
